Data reported in patent publication US12447156B2, “Treating progressive familial intrahepatic cholestasis (PFIC) with IBAT inhibitors” (ALBIREO AB, priority 2020, dated 2025).
Where “and” joins values, the source holds several entries; their conditions need not be identical. Equal values may be shown once.

System: children with PFIC1 or PFIC2
Assay: PEDFIC 1 phase 3 randomized, double-blind, placebo-controlled trial: efficacy (pruritus, serum bile acids, hepatic parameters, growth, sleep)
Type: in vivo, human
Conditions: for Proportion of Positive Pruritus Assessments Over the Treatment Period, Mean (SE) / Proportion of Positive Pruritus Assessments, Mean Difference vs Placebo (least squares means): 24 weeks; for least squares mean treatment difference vs placebo in proportion of positive pruritus assessments / least square mean proportion of positive pruritus assessments at the patient level: over 24 weeks; for least square mean proportion of positive pruritus assessments at the patient level: ObsRO
Description: Odevixibat is an orally administered, potent, luminally restricted, selective IBAT inhibitor in development to treat cholestatic liver diseases. In this phase 3, randomized, 24-week trial (PEDFIC 1), the efficacy and safety of odevixibat versus placebo was evaluated in children with PFIC1 or PFIC2. The efficacy of odevixibat in patients with PFIC was evaluated a 24-week, randomized, double-blind, placebo-controlled trial conducted in 62 patients with a confirmed diagnosis of PFIC Type 1 or Type 2 (NCT03566238; European Union (EU), 2017-002338-21; PEDFIC1; FIG. 1). Patients were randomized 1:1:1 to placebo, or 40 or 120 μg/kg odevixibat and stratified by PFIC Type (1 or 2) and age (6 months to 5 years, 6 to 12 years, and 13 to ≤18 years). Patients with pathologic variations of the ABCB11 gene that predict complete absence of the bile salt export pump (BSEP) protein and those with alanine aminotransferase (ALT)>10×ULN or bilirubin>5×ULN were excluded from the study.
The study consisted of a screening phase and parallel-design treatment period (FIG. 1). Two screening visits occurred: the first took place during days −56 to −35 prior to the first dose of study drug and the second occurred during days −28 to −7. On day 0, all eligible patients were randomized 1:1:1 to oral, once-daily placebo, 40 μg/kg/day odevixibat, or 120 μg/kg/day odevixibat. After written informed consent was obtained, an 8-digit patient identification number was assigned by the Interactive Web Response System (IWRS). The first two digits denoted country, followed by a 3-digit site number, and a 3-digit patient sequence number. The randomization codes were computer generated by a biostatistician at ICON Clinical Research Ltd (Dublin, Ireland) and kept by an unblinded statistician at Firma Clinical Research (Chicago, IL, USA), independent from the project team. Patients deemed eligible for randomization were assigned a unique 4 digit randomization number by the IWRS that identified which treatment was allocated to the patient. Randomization was done in a block size of six and stratified according to PFIC type 1 or 2 and age group (6 months to 5 years, 6 to 12 years, and 13 to ≤18 years) to ensure approximate balance between dose schemes (1:1:1). A separate randomization list was prepared for the patients who had taken part in study A4250-003, regardless of stratification. Randomization codes were assigned sequentially as patients became eligible for randomization. The IWRS system assigned a study drug number(s) corresponding to the randomization arm at each dispensing visit. A 5-digit study drug number identified study drug packs and was detailed on the study drug label.
Treatment was dispensed during on-site clinic visits, and patients or caregivers were instructed to take or administer the study drug at home each morning, either as an intact capsule(s) (swallowed with a glass of water and with food) or sprinkled on soft, room-temperature food (e.g., applesauce, followed by water). The double-blind PEDFIC 1 treatment period lasted 24 weeks.
Children (aged 0.5 to 18 years) with genetic confirmation of biallelic pathogenic mutations in the ATP8B1 (i.e., PFIC1) or ABCB11 genes (i.e., PFIC2), elevated serum bile acids (≥100 μmol/L), history of significant pruritus, and an average caregiver-reported observed scratching score ≥2 (calculated from daily electronic diary [eDiary] entries) in the 14 days prior to randomization, were eligible for inclusion. Additionally, caregivers or age-appropriate patients (≥8 years of age) agreed to use the eDiary device to record symptoms. Patients with two mutations in ABCB11 predicting a complete absence of functional bile salt export pump protein were excluded.
Two different primary endpoints were evaluated. The first primary endpoint in this study was the proportion of positive pruritus assessments at the patient level over the 24-week treatment period based on an observer-reported outcome (ObsRO) instrument. […]

In the case of `CCCCC1(CCCC)CN(c2ccccc2)c2cc(SC)c(OCC(=O)N[C@@H](C(=O)N[C@@H](CC)C(=O)O)c3ccc(O)cc3)cc2S(=O)(=O)N1` [Odevixibat, 1,1-dioxo-3,3-dibutyl-5-phenyl-7-methylthio-8-(N-{(R)-α-[N-((S)-1-carboxypropyl)carbamoyl]-4-hydroxybenzyl}carbamoylmethoxy)-2,3,4,5-tetrahydro-1,2,5-benzothiadiazepine], the Patients with Reduction in Serum Bile Acids, % Difference vs Placebo (PEDFIC 1, 40 μg/kg/day) is reported as 44.1%, the “mean percentage difference vs placebo in patients who met the serum bile acid reduction endpoint” value (PEDFIC 1, 40 μg/kg/day) is reported as 44.1% and the “Proportion of Positive Pruritus Assessments Over the Treatment Period, Mean (SE)” value (PEDFIC 1, 40 μg/kg/day (n = 23)) is reported as 58.31 (6.205). For the same compound, the “Proportion of Positive Pruritus Assessments, Mean Difference vs Placebo (least squares means)” value (PEDFIC 1, 40 μg/kg/day) was 28.23 (9.182), the “Autotaxin, change from baseline to week 24, mean” value (“Autotaxin, change from baseline” for short) (PEDFIC 1, 40 μg/kg/day, n 14) was -1698 ng/mL and the “APRI, change from baseline to week 24, mean” value (from here on “APRI, change from baseline”) (PEDFIC 1, 40 μg/kg/day, n 15) was −0.1. For the same compound, the “C4 (7alpha-hydroxy-4-cholesten-3-one), change from baseline to week 24, mean” value (PEDFIC 1, 40 μg/kg/day, n 15) was 15.7 ng/mL, the “FIB-4, change from baseline to week 24, mean” value (“FIB-4, change from baseline” for short) (PEDFIC 1, 40 μg/kg/day, n 15) was 0.0 and the “PELD/MELD, change from baseline to week 24, mean” value (from here on “PELD/MELD, change from baseline”) (PEDFIC 1, 40 μg/kg/day, n 15) was −2.4. The “GGT, change from baseline to week 24, mean (SE)” value (from here on “GGT, change from baseline … (SE)”) (PEDFIC 1, 40 μg/kg/day, n 17) was −3 (2) U/L, the “Serum AST, change from baseline to week 24, mean” value (shortened to “Serum AST, change from baseline”) (PEDFIC 1, 40 μg/kg/day, n 17) was −37 U/L and the “Total bilirubin, change from baseline to week 24, mean” value (shortened to “Total bilirubin, change from baseline”) (PEDFIC 1, 40 μg/kg/day, n 17) was -1.4 mg/dL. For the same compound, the “Proportion of Patients with Reduction in Serum Bile Acids at End of Treatment” value (“Proportion of Patients with Reduction” for short) (PEDFIC 1, 40 μg/kg/day, n = 23) was 10 (43.5) n (%), the “least squares mean treatment difference vs placebo in proportion of positive pruritus assessments” value (PEDFIC 1, 40 μg/kg/day) was 28.2% and the “least square mean proportion of positive pruritus assessments at the patient level” value (from here on “least square mean proportion”) (PEDFIC 1, 40 μg/kg/day) was 58%. The “proportion of patients achieving a serum bile acid response (≥70% reduction or ≤70 μmol/L)” value (“proportion … (≥70% reduction or ≤70 μmol/L)” for short) (PEDFIC 1, 40 μg/kg/day, week 24) was 44%, the “mean (SE) change from baseline to end of treatment in height z-score” value (PEDFIC 1, 40 μg/kg/day, placebo 0.10 (0.102)) was 0.29 (0.106) and the “mean (SE) change from baseline to end of treatment in ALT” value (PEDFIC 1, 40 μg/kg/day, placebo 3.7 (4.95)) was −27.9 (17.97) U/L. The “mean change from baseline to end of treatment in percentage of days sleeping with the caregiver” value (PEDFIC 1, 40 μg/kg/day, placebo −5.5%) was −49.4%, the “mean change from baseline to end of treatment in percentage of days requiring soothing” value (PEDFIC 1, 40 μg/kg/day, placebo −7.6%) was −51.5% and the Patients with Reduction in Serum Bile Acids, % Difference vs Placebo (PEDFIC 1, 120 μg/kg/day) was 21.6%. For the same compound, the “mean (SE) change from baseline to end of treatment in ALT” value (PEDFIC 1, 120 μg/kg/day) was −25.3 (22.47) U/L, the “mean (SE) change from baseline to end of treatment in height z-score” value (PEDFIC 1, 120 μg/kg/day) was 0.15 (0.124) and the “mean change from baseline to end of treatment in percentage of days requiring soothing” value (PEDFIC 1, 120 μg/kg/day) was −34.9%. For the same compound, the “mean change from baseline to end of treatment in percentage of days sleeping with the caregiver” value (PEDFIC 1, 120 μg/kg/day) was −33.1%, the “mean percentage difference vs placebo in patients who met the serum bile acid reduction endpoint” value (PEDFIC 1, 120 μg/kg/day) was 21.6% and the “Proportion of Positive Pruritus Assessments Over the Treatment Period, Mean (SE)” value (PEDFIC 1, 120 μg/kg/day (n = 19)) was 47.69 (8.110). For the same compound, the “Proportion of Positive Pruritus Assessments, Mean Difference vs Placebo (least squares means)” value (PEDFIC 1, 120 μg/kg/day) was 21.71 (9.892), the “APRI, change from baseline” value (PEDFIC 1, 120 μg/kg/day, n 8) was 0.0 and the “FIB-4, change from baseline” value (PEDFIC 1, 120 μg/kg/day, n 8) was 0.1. The “Autotaxin, change from baseline” value (PEDFIC 1, 120 μg/kg/day, n 12) was -1018 ng/mL, the “C4 (7alpha-hydroxy-4-cholesten-3-one), change from baseline to week 24, mean” value (PEDFIC 1, 120 μg/kg/day, n 12) was 15.8 ng/mL and the “PELD/MELD, change from baseline” value (PEDFIC 1, 120 μg/kg/day, n 14) was −1.1. The “GGT, change from baseline … (SE)” value (PEDFIC 1, 120 μg/kg/day, n 15) was −1 (1) U/L, the “Serum AST, change from baseline” value (PEDFIC 1, 120 μg/kg/day, n 15) was −27 U/L and the “Total bilirubin, change from baseline” value (PEDFIC 1, 120 μg/kg/day, n 15) was -1.1 mg/dL. For the same compound, the “Proportion of Patients with Reduction” value (PEDFIC 1, 120 μg/kg/day, n = 19) was 4 (21.1) n (%), the “least squares mean treatment difference vs placebo in proportion of positive pruritus assessments” value (PEDFIC 1, 120 μg/kg/day) was 21.7% and the “least square mean proportion” value (PEDFIC 1, 120 μg/kg/day) was 52%. The “proportion … (≥70% reduction or ≤70 μmol/L)” value (PEDFIC 1, 120 μg/kg/day, week 24) was 21%, the “percentage of days seeing blood due to scratching, number of awakenings, percentage of days taking medications to induce sleep: odevixibat vs placebo” value (PEDFIC 1, 24 weeks) was “no clear differences” and the “reduction of autotaxin levels” value (PEDFIC 1, 24 weeks of treatment) was “approximately half”. For the same compound, the Patients with Reduction in Serum Bile Acids, % Difference vs Placebo (PEDFIC 1, Total odevixibat) was 30.7%, the “Proportion of Positive Pruritus Assessments Over the Treatment Period, Mean (SE)” value (PEDFIC 1, Total odevixibat (N = 42), placebo 28.74 (5.209)) was 53.51 (5.006) and the “Proportion of Patients with Reduction” value (PEDFIC 1, Total odevixibat (N = 42), placebo 0) was 14 (33.3) n (%). For the same compound, the “Proportion of Positive Pruritus Assessments, Mean Difference vs Placebo (least squares means)” value (PEDFIC 1, Total odevixibat) was 24.97 (8.240), the “patients undergoing surgical interruption of the enterohepatic circulation or liver transplantation” value (PEDFIC 1, all 62 patients, during the study) was “None” and the “mean (SE) change from baseline in ObsRO pruritus score (mean monthly)” value (PEDFIC 1, all doses, baseline to weeks 21 through 24, placebo −0.25 (0.2)) was −1.11 (0.2). The “APRI, change from baseline” value (PEDFIC 1, all doses, n 23) was −0.1, the “FIB-4, change from baseline” value (PEDFIC 1, all doses, n 23) was 0.0 and the “Autotaxin, change from baseline” value (PEDFIC 1, all doses, n 26) was -1384 ng/mL. The “C4 (7alpha-hydroxy-4-cholesten-3-one), change from baseline to week 24, mean” value (PEDFIC 1, all doses, n 27) was 15.7 ng/mL, the “PELD/MELD, change from baseline” value (PEDFIC 1, all doses, n 29) was −1.8 and the “GGT, change from baseline … (SE)” value (PEDFIC 1, all doses, n 32) was −2 (1) U/L. The “Serum AST, change from baseline” value (PEDFIC 1, all doses, n 32) was −32 U/L, the “Total bilirubin, change from baseline” value (PEDFIC 1, all doses, n 32) was -1.3 mg/dL and the “least square mean proportion” value (PEDFIC 1, all doses, placebo 30%) was 55% and 55.1%. The “proportion … (≥70% reduction or ≤70 μmol/L)” value (PEDFIC 1, all doses, week 24, placebo 0) was 33% and 33.3%, the “mean (SE) change in serum ALT” value (PEDFIC 1, all doses, week 24, placebo 3.7 (5.0)) was −26.7 (14.0) U/L and the “proportion of patients with clinically meaningful change in pruritus (≥1-point decrease, mean monthly score)” value (PEDFIC 1, all doses, week 24, placebo 11%) was 43%. The “mean change in serum bile acid levels” value (PEDFIC 1, all doses, weeks 22 through 24 / end of treatment, placebo +13.1) was -114.3 µmol/L, the “mean pruritus score change from baseline to end of treatment” value (PEDFIC 1, all doses, placebo −0.25, scale 0-4) was −1.13 and the “mean change in daytime tiredness score (0-4)” value (PEDFIC 1, odevixibat overall, baseline to weeks 21 to 24, placebo −0.49) was −0.99. The “mean change from baseline in percentage of days needing help falling asleep” value (PEDFIC 1, odevixibat overall, weeks 21 to 24, placebo −3%) was −43%, the “mean change from baseline in percentage of days sleeping with the caregiver” value (PEDFIC 1, odevixibat overall, weeks 21 to 24, placebo −6%) was −42% and the “mean change from baseline in percentage of days with soothing” value (PEDFIC 1, odevixibat overall, weeks 21 to 24, placebo −8%) was −44%. For the same compound, the “mean (SE) change from baseline to week 24 in weight Z-score” value (PEDFIC 1, patients treated with odevixibat, placebo 0.1 (0.1)) was 0.2 (0.1), the “mean (SE) change from baseline to week 24 in height Z-score” value (PEDFIC 1, patients treated with odevixibat, placebo −0.2 (0.1)) was 0.0 (0.1) and the “proportion of patients who met serum bile acid response criteria” value (PEDFIC 1, patients with PFIC1, week 24) was 17%. For the same compound, the “proportion of patients who met serum bile acid response criteria” value (PEDFIC 1, patients with PFIC2, week 24) was 40%.
